From US20190290614A1, “Methods for Reducing Recurrence of Tumors” (Beth Israel Deaconess Medical Center, Inc., priority 2016, published 2019)

Legend:
[1] = in vivo; cited from earlier work
LLC [2] = test: second tumor challenge 200 days after LLC tumor resection; assay type: in vivo, immunocompetent mice (C57BL6); settings: 200 days post LLC tumor resection, ketorolac preoperatively; FIG. 4A
Method: To determine whether perioperative COX-1 inhibition produces a durable immune response to the cancer, immunocompetent mice (C57BL6) at 200 days after undergoing LLC tumor resection during which they were administered ketorolac preoperatively, were given a second tumor challenge with the same tumor types (LLC).

T241 fibrosarcoma = test: liver biopsy-stimulated lung metastasis post primary tumor resection; assay type: in vivo; settings: pre-surgical administration; FIG. 2D
Text: (D) Liver biopsy stimulated lung metastasis post primary tumor resection (T241 fibrosarcoma).
In addition, liver biopsy alone stimulated lung metastasis post primary tumor resection in a T241 fibrosarcoma model (O'Reilly et al., Cell. 1994 Oct. 21; 79(2):315-28 and Panigraphy et al., J Clin Invest. 2012 January; 122(1):178-91).

LLC tumor cells = test: Hematoxylin & Eosin analysis of lungs after LLC tumor resection; assay type: in vivo, mice; settings: 240 days post-surgery; i.p. 7.5 mg/kg 2 hours prior to surgery; abundant LLC tumor cells at Day 0
Text: Representative micrographs of 4 different mice per group (total of 10 mice/group).

prostate cancer = settings: after radical prostatectomy for prostate cancer; retrospective; cited from earlier work
[3] = human, in vivo; cited from earlier work
[4] = system: Lewis Lung carcinoma (LLC); test: spontaneous LLC lung metastasis model after primary tumor resection (survival); assay type: in vivo, mice; settings: for mimicked the action of ketorolac in prolonging survival after primary LLC tumor resection: FR122047 20, TFAP 30, SC-560 30, indomethacin 3 mg/kg i.p., celecoxib 60 mg/kg oral gavage, FIG. 1B
Text: Doses were selected based on previous publications by the present inventors and others, and/or by analogy to the human dose.

B16F10 melanoma [5] = test: third tumor challenge with a different tumor-type; assay type: in vivo, immunocompetent mice (C57BL6); settings: same mice, FIG. 4A
E0771 breast cancer = test: spontaneous E0771 breast cancer metastasis model after primary tumor resection; assay type: in vivo; settings: pre-operative; FIG. 1D
LLC [6] = test: LLC tumor resection in WT and COX-2 KO mice (metastasis); assay type: in vivo; settings: administered prior to surgery, FIG. 4B
[7] = system: Lewis lung carcinoma (LLC); test: laparotomy-stimulated primary tumor dormancy escape, LLC; assay type: in vivo; settings: pre-surgical administration; 1×10^4 cells; FIG. 2B
Text: (§1) (A-C) Surgery (i.e. laparotomy) stimulated primary tumor dormancy escape in a B16F10 melanoma (1×10^3 cells), Lewis lung carcinoma (LLC 1×10^4 cells), and EL4 lymphoma (1×10^4 cells). Images show representative tumors on Day 35 post-injection; Scale bar, 1 cm.
(§2) Surgery (i.e., laparotomy, which is a surgical procedure involving a large incision through the abdominal wall to gain access into the abdominal cavity, also known as a celiotomy) stimulated primary tumor dormancy escape in a B16F10 melanoma (1×10^3 cells, see Kalpainen et al., PLoS One. 2007 Feb. 28; 2(2):e260 and Panigraphy et al., J Clin Invest. 2012 January; 122(1):178-91; FIG. 2A), Lewis lung carcinoma (LLC 1×10^4 cells, FIG. 2B), and EL4 lymphoma (1×10^4 cells, FIG. 2C).

B16F10 = test: laparotomy-induced tumor dormancy escape in Rag1 KO mice; assay type: in vivo; settings: B16F10, 1×10^3; FIG. 3C
EL4 lymphoma = test: laparotomy-stimulated primary tumor dormancy escape, EL4; assay type: in vivo; settings: pre-surgical administration; 1×10^4 cells; FIG. 2C
Text: as §1, §2

B16F10 melanoma [8] = test: laparotomy-stimulated primary tumor dormancy escape, B16F10; assay type: in vivo; settings: pre-surgical administration; 1×10^3 cells; FIG. 2A
Text: as §1, §2

MMTV-PyMT breast tumor = test: surgery-stimulated (laparotomy) spontaneous tumor model, genetically engineered murine breast tumor model; assay type: in vivo; settings: FIG. 1C
human lung tumor (H460) = test: human lung tumor primary tumor resection in SCID mice; assay type: in vivo; settings: FIG. 3B
LLC [9] = test: LLC tumor resection in nude athymic mice; assay type: in vivo, nude athymic C57BL/6 mice; settings: administered prior to LLC tumor resection; FIG. 3A
Method: To determine whether the effects of Ketorolac were due to actions on the immune system, the effects of ketorolac administered prior to LLC tumor resection was determined in nude athymic C57BL/6 mice, SCID mice, and Rag1 KO Mice.

[10] = used alone; single subcutaneous injection before the resection; cited from earlier work

CN1CC[C@]23c4c5ccc(O)c4O[C@H]2[C@@H](O)C=C[C@H]3[C@H]1C5 [morphine]
effect on angiogenesis, tumor cell proliferation, primary tumor growth and metastasis [1]: stimulates angiogenesis, tumor cell proliferation, primary tumor growth and metastasis

O=C(c1ccccc1)c1ccc2n1CCC2C(=O)O (centres unmarked) [ketorolac, ketorolac tromethamine]
response to second tumor challenge (LLC) (LLC [2]): resisted a second tumor challenge
biopsy-stimulated lung metastasis (T241 fibrosarcoma): inhibited this biopsy-stimulated lung metastasis
tumor cells in lungs (Hematoxylin & Eosin) (LLC tumor cells): no tumor cells were detectable
benefit of perioperative use (prostate cancer): no benefit
major side effect [3]: increased bleeding time
tumor micrometastasis by immunohistochemistry ([4]; 180 to 200 days, micrometastasis present on day of tumor resection): no evidence of tumor micrometastasis
survival after primary tumor resection ([4]; pre-operative (2 hrs prior to surgery), ketorolac 7.5 mg/kg I.P., celecoxib 30 mg/kg bid po, FIG. 1A): prolonged survival
"cured" (long term survival) ([4]; pre-operative, syngeneic LLC lung cancer model): approximately 50 % of mice
response to third tumor challenge (B16F10 melanoma) (B16F10 melanoma [5]): exhibited rapid tumor growth
survival after primary tumor resection (E0771 breast cancer): prolonged survival
tumor metastasis (LLC [6]; COX-2 knockout (KO) mice): prevented tumor metastasis
tumor metastasis (LLC [6]; WT mice): prevented tumor metastasis
surgery-induced tumor dormancy escape [7]: inhibited surgery-induced tumor dormancy escape
laparotomy-induced tumor dormancy escape (B16F10): did not inhibit laparotomy-induced tumor dormancy escape
surgery-induced tumor dormancy escape (EL4 lymphoma): inhibited surgery-induced tumor dormancy escape
surgery-induced tumor dormancy escape (B16F10 melanoma [8]): inhibited surgery-induced tumor dormancy escape
survival (MMTV-PyMT breast tumor): prolonged survival
metastases after primary tumor resection (human lung tumor (H460)): did not inhibit metastases
anti-metastatic activity (LLC [9]): did not have anti-metastatic activity

COc1ccc(-c2nc(C(=O)N3CCN(C)CC3)sc2-c2ccc(OC)cc2)cc1.Cl [FR122047, 1-[[4,5-bis(4-Methoxyphenyl)-2-thiazolyl]carbonyl]-4-methylpiperazine hydrochloride]
mimicked the action of ketorolac in prolonging survival after primary LLC tumor resection [4]: mimicked the action of ketorolac

CCc1cccc2c3c([nH]c12)C(CC)(CC(=O)O)OCC3 (centres unmarked) [etodolac]
spontaneous postoperative metastasis [10]: did not prevent spontaneous postoperative metastasis

Nc1ccc(NC(=O)c2ccc(C(F)(F)F)cc2)nc1 [TFAP, N-(5-amino-2-pyridinyl)-4-trifluoromethylbenzamide]
mimicked the action of ketorolac in prolonging survival after primary LLC tumor resection [4]: mimicked the action of ketorolac
